Tests used:
Assay in all cases: relative viability (nuclei count vs DMSO), 5 days (fraction); higher = more cells survive
[1] = compound: CC(C)C[C@H](NC(=O)[C@H](CCc1ccccc1)NC(=O)CN1CCOCC1)C(=O)N[C@@H](Cc1ccccc1)C(=O)N[C@@H](CC(C)C)C(=O)[C@@]1(C)CO1 [Carfilzomib] + CC(=O)c1c(C)c2cnc(Nc3ccc(N4CCNCC4)cn3)nc2n(C2CCCC2)c1=O [Palbociclib] (partner 0.5 µM)
How it was run: (§1)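 Relative viability is defined as nuclei in treated wells over nuclei in vehicle wells. Duplicate plates were run and medians reported. Lung cancer cell lines in 1536-well plates were dosed by pin tool one day after seeding, with one drug or with a fixed anchor-drug dose plus five library-drug doses (not always all listed) in √10 steps, and nuclei were counted after 5 days.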

Crizotinib + Alpelisib = compound: C[C@@H](Oc1cc(-c2cnn(C3CCNCC3)c2)cnc1N)c1c(Cl)ccc(F)c1Cl [Crizotinib] + Cc1nc(NC(=O)N2CCC[C@H]2C(N)=O)sc1-c1ccnc(C(C)(C)C(F)(F)F)c1 [Alpelisib] (partner 2 µM)
How it was run: as §1

Carfilzomib + Luminespib = compound: CC(C)C[C@H](NC(=O)[C@H](CCc1ccccc1)NC(=O)CN1CCOCC1)C(=O)N[C@@H](Cc1ccccc1)C(=O)N[C@@H](CC(C)C)C(=O)[C@@]1(C)CO1 [Carfilzomib] + CCNC(=O)c1noc(-c2cc(C(C)C)c(O)cc2O)c1-c1ccc(CN2CCOCC2)cc1 [Luminespib] (partner 0.01 µM)
How it was run: as §1

Crizotinib + AZD7762 = compound: C[C@@H](Oc1cc(-c2cnn(C3CCNCC3)c2)cnc1N)c1c(Cl)ccc(F)c1Cl [Crizotinib] + NC(=O)Nc1cc(-c2cccc(F)c2)sc1C(=O)N[C@H]1CCCNC1 [AZD7762] (partner 0.2 µM)
How it was run: as §1

| Cell Line | relative viability ([1]; first compound 0.001 µM) | relative viability ([1]; first compound 0.003162 µM) | relative viability ([1]; first compound 0.01 µM) | relative viability ([1]; first compound 0.03162 µM) | relative viability ([1]; first compound 0.1 µM) | relative viability (Crizotinib + Alpelisib; first compound 0.01 µM) | relative viability (Crizotinib + Alpelisib; first compound 0.03162 µM) | relative viability (Crizotinib + Alpelisib; first compound 0.1 µM) | relative viability (Crizotinib + Alpelisib; first compound 0.3162 µM) | relative viability (Crizotinib + Alpelisib; first compound 1 µM) | relative viability (Carfilzomib + Luminespib; first compound 0.001 µM) | relative viability (Carfilzomib + Luminespib; first compound 0.003162 µM) | relative viability (Carfilzomib + Luminespib; first compound 0.01 µM) | relative viability (Carfilzomib + Luminespib; first compound 0.03162 µM) | relative viability (Carfilzomib + Luminespib; first compound 0.1 µM) | relative viability (Crizotinib + AZD7762; first compound 0.01 µM) | relative viability (Crizotinib + AZD7762; first compound 0.03162 µM) | relative viability (Crizotinib + AZD7762; first compound 0.1 µM) | relative viability (Crizotinib + AZD7762; first compound 1 µM) | relative viability (Crizotinib + AZD7762; first compound 0.3162 µM) |
| --- | --- | --- | --- | --- | --- | --- | --- | --- | --- | --- | --- | --- | --- | --- | --- | --- | --- | --- | --- | --- |
| NCI-H661 | 0.423 | 0.414 | 0.472 | 0.398 | 0.318 | 0.665 | 0.684 | 0.615 | 0.699 | 0.725 | 0.93 | 0.967 | 0.933 | 0.866 | 0.291 |  |  |  |  |  |
| NCI-H650 | 0.331 | 0.362 | 0.367 | 0.224 | 0.14 | 0.955 | 1.2 | 1.06 | 1.06 | 1.17 |  | 0.866 | 0.636 | 0.746 | 0.182 | 1.03 | 0.979 | 0.815 | 0.945 |  |
| RERF-LC-KJ | 1.07 | 1.04 | 1.27 | 0.837 | 0.193 | 0.702 | 0.847 | 0.82 | 0.816 |  | 1.24 | 1.29 | 1.32 | 0.609 | 0.224 | 1.02 | 0.956 | 0.956 | 0.994 | 0.946 |
| SK-LU-1 | 0.331 | 0.442 | 0.336 | 0.266 | 0.171 | 0.989 | 1.04 | 1.11 | 1.17 |  | 0.238 | 0.223 | 0.211 | 0.154 | 0.13 |  |  |  |  |  |
| NCI-H1792 | 0.655 | 0.646 | 0.707 | 0.634 | 0.466 | 0.627 | 0.789 | 0.658 | 0.663 | 0.726 | 0.425 | 0.423 | 0.482 | 0.456 | 0.356 | 0.634 | 0.881 | 0.626 | 0.63 |  |
| NCI-H1666 | 0.674 | 0.67 | 0.651 | 0.615 | 0.488 | 0.964 |  | 1 | 0.984 | 0.959 | 0.993 | 1.06 | 1.11 | 0.863 | 0.358 | 0.78 | 0.899 | 0.828 |  | 0.825 |
| SK-MES-1 | 0.387 | 0.344 | 0.34 | 0.282 | 0.183 | 0.775 | 0.929 | 0.79 | 0.803 |  | 0.854 | 0.902 | 0.759 | 0.544 | 0.172 |  |  |  |  |  |
| NCI-H1915 | 0.479 | 0.513 | 0.521 | 0.514 | 0.0575 | 1.08 | 1.08 | 1.14 |  | 1.09 | 0.698 | 0.781 | 0.766 | 0.375 | 0.0837 | 0.66 | 0.682 | 0.739 | 0.704 | 0.694 |
| SW 1573 | 0.396 | 0.5 | 0.235 | 0.0595 | 0.0481 | 0.663 | 0.896 | 0.638 | 0.732 | 0.779 | 0.317 | 0.23 | 0.368 | 0.0748 | 0.057 |  |  |  |  |  |

— the supplement of paper PMC10307832
